Test results as given in patent US7732375B2, “Hexyl carboxanilides and their use for controlling fungi” (Bayer CropScience AG, priority 2003, dated 2010).

Tests used:
Podosphaera leucotricha = experiment: Podosphaera test (apple)/protective; type: in vivo; conditions: 240 h, protective, application rate 100 g/ha, evaluation 10 days after inoculation, read-out: Efficacy in %
Experimental: (§1) • Solvents: 24.5 parts by weight of acetone • 24.5 parts by weight of dimethylacetamide • Emulsifier: 1 part by weight of alkylaryl polyglycol ether
(§2) To produce a suitable preparation of active compound, 1 part by weight of active compound is mixed with the stated amounts of solvents and emulsifier, and the concentrate is diluted with water to the desired concentration.
To test for protective activity, young plants are sprayed with the preparation of active compound at the stated application rate. After the spray coating has dried on, the plants are inoculated with an aqueous spore suspension of the apple mildew pathogen Podosphaera leucotricha. The plants are then placed in a greenhouse at about 23° C. and a relative atmospheric humidity of about 70%.
(§3) Evaluation is carried out 10 days after the inoculation. 0% means an efficacy which corresponds to that of the control, whereas an efficacy of 100% means that no infection is observed.

Puccinia recondita = experiment: Puccinia test (wheat)/protective; type: in vivo; conditions: evaluation 10 days after inoculation
Experimental: • a) Solvent: 50 parts by weight of N,N-dimethylacetamide Emulsifier: 1 part by weight of alkylaryl polyglycol ether • b) Solvent: 25 parts by weight of N,N-dimethylacetamide Emulsifier: 0.6 part by weight of alkylaryl polyglycol ether To produce a suitable preparation of active compound, 1 part by weight of active compound is mixed with the stated amounts of solvent and emulsifier, and the concentrate is diluted with water to the desired concentration. To test for protective activity, young plants are sprayed with the preparation of active compound at the stated application rate. After the spray coating has dried on, the plants are sprayed with a conidia suspension of Puccinia recondita. The plants remain in an incubation cabin at 20° C. and 100% relative atmospheric humidity for 48 hours. The plants are then placed in a greenhouse at a temperature of about 20° C. and a relative atmospheric humidity of 80% to promote the development of rust pustules. Evaluation is carried out 10 days after the inoculation. 0% means an efficacy which corresponds to that of the control, whereas an efficacy of 100% means that no infection is observed.

Sphaerotheca fuliginea = experiment: Sphaerotheca test (cucumber)/protective; type: in vivo; conditions: protective, application rate 750 g/ha, evaluation 7 days after inoculation
Experimental: Solvent: 49 parts by weight of N,N-dimethylformamide Emulsifier: 1 part by weight of alkylaryl polyglycol ether To produce a suitable preparation of active compound, 1 part by weight of active compound is mixed with the stated amounts of solvent and emulsifier, and the concentrate is diluted with water to the desired concentration. To test for protective activity, young cucumber plants are sprayed with the preparation of active compound at the stated application rate. 1 day after treatment the plants are inoculated with a spore suspension of Sphaerotheca fuliginea. The plants are then placed in a greenhouse at a relative atmospheric humidity of 70% and a temperature of 23° C. Evaluation is carried out 7 days after the inoculation. 0% means an efficacy which corresponds to that of the control, whereas an efficacy of 100% means that no infection is observed.

[1] = logP determination by HPLC on reversed-phase column (C 18), EEC Directive 79/831 Annex V.A8; type: physicochemical; conditions: reversed-phase HPLC column (C 18), pH 2.3, 0.1% aqueous phosphoric acid and acetonitrile, 43° C.
Experimental: The determination of the logP values given in the preparation examples and tables above is carried out in accordance with EEC Directive 79/831 Annex V.A8 by HPLC (High Performance Liquid Chromatography) on a reversed-phase column (C 18). Temperature: 43° C. The determination is carried out in the acidic range at pH 2.3 using the mobile phases, 0.1% aqueous phosphoric acid and acetonitrile; linear gradient from 10% acetonitrile to 90% acetonitrile. Calibration is carried out using unbranched alkan-2-ones (of 3 to 16 carbon atoms) with known logP values (determination of the logP values by the retention times using linear interpolation between two successive alkanones).

Venturia inaequalis = experiment: Venturia test (apple)/protective; type: in vivo; conditions: protective, application rate 100 g/ha, evaluation 10 days after inoculation; for pest or weed control at 100 g/ha: Venturia inaequalis, 240 h, read-out: Efficacy in %
Experimental: as §1, §2
To test for protective activity, young plants are sprayed with the preparation of active compound at the stated application rate. After the spray coating has dried on, the plants are inoculated with an aqueous conidia suspension of the apple scab pathogen Venturia inaequalis and then remain in an incubation cabin at about 20° C. and 100% relative atmospheric humidity for 1 day.
The plants are then placed in a greenhouse at about 21° C. and a relative atmospheric humidity of about 90%.
as §3

Botrytis cinerea = experiment: Botrytis test (bean)/protective; type: in vivo; conditions: protective, application rate 500 g/ha, evaluation 2 days after inoculation; for pest or weed control at 500 g/ha: Botrytis cinerea, 48 h, read-out: Efficacy in %
Experimental: as §1, §2
To test for protective activity, young plants are sprayed with the preparation of active compound at the stated application rate. After the spray coating has dried on, 2 small pieces of agar colonized by Botrytis cinerea are placed onto each leaf. The inoculated plants are placed in a dark chamber at about 20° C. and 100% relative atmospheric humidity.
2 days after the inoculation, the size of the infected areas on the leaves is evaluated. 0% means an efficacy which corresponds to that of the control, whereas an efficacy of 100% means that no infection is observed.

[2] = tested on: Erysiphe graminis f.sp. hordei; experiment: Erysiphe test (barley)/protective; type: in vivo; conditions: protective, application rate 500 g/ha, evaluation 7 days after inoculation
Experimental: Solvent: 25 parts by weight of N,N-dimethylacetamide Emulsifier: 0.6 part by weight of alkylaryl polyglycol ether To produce a suitable preparation of active compound, 1 part by weight of active compound is mixed with the stated amounts of solvent and emulsifier, and the concentrate is diluted with water to the desired concentration. To test for protective activity, young plants are sprayed with the preparation of active compound at the stated application rate. After the spray coating has dried on, the plants are dusted with spores of Erysiphe graminis f.sp. hordei. The plants are placed in a greenhouse at a temperature of about 20° C. and a relative atmospheric humidity of about 80% to promote the development of mildew pustules. Evaluation is carried out 7 days after the inoculation. 0% means an efficacy which corresponds to that of the control, whereas an efficacy of 100% means that no infection is observed.

[3] = wheat; application rate 500 g/ha; solvent/emulsifier a)
[4] = wheat; application rate 500 g/ha; solvent/emulsifier b)

CC(CC(C)(C)C)c1ccccc1NC(=O)c1c(C(F)(F)F)nn(C)c1Cl (stereo not drawn)
pest or weed control at 100 g/ha (Podosphaera leucotricha): 97%

CCC(C)(C)CC(C)c1ccccc1NC(=O)c1cn(C)nc1C(F)(F)F (stereo not drawn)
Efficacy in % (Puccinia recondita; [3]): 100%

Cc1nc(Cl)sc1C(=O)Nc1ccccc1C(C)CC(C)(C)C (stereo not drawn)
Efficacy in % (Puccinia recondita; [3]): 100%

Cc1occc1C(=O)Nc1ccccc1C(C)CC(C)(C)C (stereo not drawn)
Efficacy in % (Puccinia recondita; [4]): 100%

CC(F)c1nn(C)cc1C(=O)Nc1ccccc1C(C)CC(C)(C)C (stereo not drawn)
Efficacy in % (Sphaerotheca fuliginea): 90%

CC(CC(C)(C)C)c1ccccc1NC(=O)c1cn(C)nc1C(Cl)Cl (stereo not drawn) [Example 1]
chromatographic logP [1]: 4.02

Cn1cc(C(=O)Cl)c(C(Cl)Cl)n1 [Example (II-1), 3-dichloromethyl-1-methyl-1H-pyrazole-4-carbonyl chloride]
chromatographic logP [1]: 1.8

Cc1ccsc1C(=O)Nc1ccccc1C(C)CC(C)(C)C (stereo not drawn) [drawing 85]
pest or weed control at 100 g/ha (Podosphaera leucotricha): 85%

CCC(C)(C)CC(C)c1ccccc1NC(=O)C1=C(C)OCCS1 (stereo not drawn) [drawing 86]
pest or weed control at 100 g/ha (Podosphaera leucotricha): 94%

CCC(C)(C)CC(C)c1ccccc1NC(=O)c1ccoc1C (stereo not drawn) [drawing 87]
pest or weed control at 100 g/ha (Podosphaera leucotricha): 91%

CCC(C)(C)CC(C)c1ccccc1NC(=O)c1sccc1C (stereo not drawn) [drawing 88]
pest or weed control at 100 g/ha (Podosphaera leucotricha): 98%

CC(CC(C)(C)C)c1ccccc1NC(=O)c1cn(C)nc1C(F)(F)F (stereo not drawn) [drawing 89]
pest or weed control at 100 g/ha (Podosphaera leucotricha): 95%

CCc1nn(C)c(Cl)c1C(=O)Nc1ccccc1C(C)CC(C)(C)C (stereo not drawn) [drawing 90]
pest or weed control at 100 g/ha (Podosphaera leucotricha): 96%

CC(CC(C)(C)C)c1ccccc1NC(=O)c1cn(C)nc1Cl (stereo not drawn) [drawing 91]
pest or weed control at 100 g/ha (Podosphaera leucotricha): 100%

Cc1nc(C(F)(F)F)c(C(=O)Nc2ccccc2C(C)CC(C)(C)C)s1 (stereo not drawn) [drawing 93]
pest or weed control at 100 g/ha (Podosphaera leucotricha): 100%

Cc1ccsc1C(=O)Nc1ccccc1C(C)CC(C)(C)C (stereo not drawn) [drawing 94]
pest or weed control at 100 g/ha (Venturia inaequalis): 96%

CC1=C(C(=O)Nc2ccccc2C(C)CC(C)(C)C)SCCO1 (stereo not drawn) [drawing 95]
pest or weed control at 100 g/ha (Venturia inaequalis): 100%

CCC(C)(C)CC(C)c1ccccc1NC(=O)C1=C(C)OCCS1 (stereo not drawn) [drawing 96]
pest or weed control at 100 g/ha (Venturia inaequalis): 100%

CCC(C)(C)CC(C)c1ccccc1NC(=O)c1ccoc1C (stereo not drawn) [drawing 97]
pest or weed control at 100 g/ha (Venturia inaequalis): 93%

CCC(C)(C)CC(C)c1ccccc1NC(=O)c1sccc1C (stereo not drawn) [drawing 98]
pest or weed control at 100 g/ha (Venturia inaequalis): 99%

CC(CC(C)(C)C)c1ccccc1NC(=O)c1cn(C)nc1C(F)(F)F (stereo not drawn) [drawing 99]
pest or weed control at 100 g/ha (Venturia inaequalis): 95%

CCc1nn(C)c(Cl)c1C(=O)Nc1ccccc1C(C)CC(C)(C)C (stereo not drawn) [drawing 100]
pest or weed control at 100 g/ha (Venturia inaequalis): 92%

CC(CC(C)(C)C)c1ccccc1NC(=O)c1cn(C)nc1Cl (stereo not drawn) [drawing 101]
pest or weed control at 100 g/ha (Venturia inaequalis): 100%

CC(CC(C)(C)C)c1ccccc1NC(=O)c1cn(C)nc1C(F)(F)F (stereo not drawn) [drawing 102]
Efficacy in % (Venturia inaequalis): 99%

Cc1nc(C(F)(F)F)c(C(=O)Nc2ccccc2C(C)CC(C)(C)C)s1 (stereo not drawn) [drawing 103]
pest or weed control at 100 g/ha (Venturia inaequalis): 99%

Cc1ccsc1C(=O)Nc1ccccc1C(C)CC(C)(C)C (stereo not drawn) [drawing 104]
pest or weed control at 500 g/ha (Botrytis cinerea): 100%

CC1=C(C(=O)Nc2ccccc2C(C)CC(C)(C)C)SCCO1 (stereo not drawn) [drawing 105]
pest or weed control at 500 g/ha (Botrytis cinerea): 95%

CCC(C)(C)CC(C)c1ccccc1NC(=O)C1=C(C)OCCS1 (stereo not drawn) [drawing 106]
pest or weed control at 500 g/ha (Botrytis cinerea): 100%

CCC(C)(C)CC(C)c1ccccc1NC(=O)c1ccoc1C (stereo not drawn) [drawing 107]
pest or weed control at 500 g/ha (Botrytis cinerea): 88%

CCC(C)(C)CC(C)c1ccccc1NC(=O)c1sccc1C (stereo not drawn) [drawing 108]
pest or weed control at 500 g/ha (Botrytis cinerea): 100%

CC(CC(C)(C)C)c1ccccc1NC(=O)c1cn(C)nc1C(F)(F)F (stereo not drawn) [drawing 109]
pest or weed control at 500 g/ha (Botrytis cinerea): 100%

CC(CC(C)(C)C)c1ccccc1NC(=O)c1cn(C)nc1Cl (stereo not drawn) [drawing 110]
pest or weed control at 500 g/ha (Botrytis cinerea): 95%

CC(CC(C)(C)C)c1ccccc1NC(=O)c1cn(C)nc1C(F)(F)F (stereo not drawn) [drawing 111]
Efficacy in % (Botrytis cinerea): 97%

Cc1nc(C(F)(F)F)c(C(=O)Nc2ccccc2C(C)CC(C)(C)C)s1 (stereo not drawn) [drawing 112]
pest or weed control at 500 g/ha (Botrytis cinerea): 95%

Cc1nc(C)c(C(=O)Nc2ccccc2C(C)CC(C)(C)C)s1 (stereo not drawn) [drawing 113]
Efficacy in % (Puccinia recondita; [3]): 100%

CCC(C)(C)CC(C)c1ccccc1NC(=O)C1=C(C)OCCS1 (stereo not drawn) [drawing 114]
Efficacy in % (Puccinia recondita; [3]): 100%

CC(CC(C)(C)C)c1ccccc1NC(=O)c1cn(C)nc1C(F)(F)F (stereo not drawn) [drawing 117]
Efficacy in % (Puccinia recondita; [3]): 100%

CCc1nn(C)c(Cl)c1C(=O)Nc1ccccc1C(C)CC(C)(C)C (stereo not drawn) [drawing 118]
Efficacy in % (Puccinia recondita; [3]): 100%

Cc1ccsc1C(=O)Nc1ccccc1C(C)CC(C)(C)C (stereo not drawn) [drawing 119]
Efficacy in % (Puccinia recondita; [4]): 100%

CC1=C(C(=O)Nc2ccccc2C(C)CC(C)(C)C)SCCO1 (stereo not drawn) [drawing 121]
Efficacy in % (Puccinia recondita; [4]): 100%

CCC(C)(C)CC(C)c1ccccc1NC(=O)c1ccoc1C (stereo not drawn) [drawing 122]
Efficacy in % (Puccinia recondita; [4]): 100%

Cc1nc(C)c(C(=O)Nc2ccccc2C(C)CC(C)(C)C)s1 (stereo not drawn) [drawing 123]
Efficacy in % (Sphaerotheca fuliginea): 95%

Cc1ccsc1C(=O)Nc1ccccc1C(C)CC(C)(C)C (stereo not drawn) [drawing 124]
Efficacy in % (Sphaerotheca fuliginea): 95%

Cc1nc(C)c(C(=O)Nc2ccccc2C(C)CC(C)(C)C)s1 (stereo not drawn) [drawing 126]
Efficacy in % [2]: 100%

Cc1ccsc1C(=O)Nc1ccccc1C(C)CC(C)(C)C (stereo not drawn) [drawing 127]
Efficacy in % [2]: 100%

CCC(C)(C)CC(C)c1ccccc1NC(=O)C1=C(C)OCCS1 (stereo not drawn) [drawing 128]
Efficacy in % [2]: 94%

CCC(C)(C)CC(C)c1ccccc1NC(=O)c1ccoc1C (stereo not drawn) [drawing 129]
Efficacy in % [2]: 100%

Cc1nc(C(F)(F)F)c(C(=O)Nc2ccccc2C(C)CC(C)(C)C)s1 (stereo not drawn) [drawing 130]
Efficacy in % [2]: 100%
